The record followed here is patent US20240019429A1, “METHODS AND RELATED ASPECTS FOR DETERMINING BINDING KINETICS OF LIGANDS” (ARIZONA BOARD OF REGENTS ON BEHALF OF ARIZONA STATE …, priority 2022, published 2024).

The target in one assay is T1, calmodulin (Homo sapiens, UniProt P0DP23).
T1 construct: purchased Sigma Aldrich
The assay can be described thus: SPR-OBL equilibrium analysis of ion binding to calmodulin OBL. The following applies: equilibrium analysis of AC response, 100 times diluted PBS buffer. The source says:
Calmodulin is a calcium sensing protein that plays a central role in cell signaling, muscle contraction and cell division. We fabricated a calmodulin OBL and flowed different concentrations of Ca^2+ over the surface. The binding of Ca^2+ to calmodulin would lead to charge and conformation change of the OBL but with small mass change (FIG. 7a). […] Thus, we only measured the magnitude of the equilibrium state. […] We note that calmodulin is negatively charged, so Ca^2+ binding should decrease the amplitude of the AC signal. The increase of AC signal in FIG. 7b is due to artifacts in data processing when correcting the background charging. The raw data has decreased signal but much lower signal-to-noise ratio (not shown). Magnesium would also bind to calmodulin with a lower affinity compared with calcium.
(§1) Binding kinetics measurement.

Another assay has as its target KcsA-Kv1.3. The experiment in a line: SPR-OBL binding kinetics of small molecules to KcsA-Kv1.3 nanodisc on streptavidin OBL. The settings on record: AC response, 40 times diluted nanodisc buffer.
Description: Unlike macromolecules that are inclined to have both mass and charge changes upon binding, small molecules are more likely to have charge change with little mass change. As such, measuring charge could be more sensitive for small molecules. To highlight this advantage of SRR-OBL and its potential for drug screening, we measured two small molecule drug candidates, compound 1 and PAP-1, binding to their target KcsA-Kv1.3, which is a chimeric membrane protein. The KcsA-Kv1.3 was encapsulated in a self-assembled phospholipid bilayer nanodisc that provides a nativelike environment for the membrane proteins to retain the structure and function. Despite the importance of membrane protein as drug targets, measuring the interaction with small molecule drug candidates has been challenging for traditional mass-sensitive technologies, due to the huge mass difference between the small molecule and the membrane protein complex. Before adding samples, 40 times diluted nanodisc buffer was flowed over the surface for 200 seconds to establish the baseline. The binding of the small molecule to KcsA-Kv1.3 nanodisc caused a charge change on the OBL, which leads to an AC response. As mentioned before, small molecule would only introduce a minor mass change. Therefore, the DC response of OBL is not obvious. […] According to a previous study that temperature would influence the binding kinetics between KcsA-Kv1.3 and small molecule due to the effect on the flexibility of lipid bilayer, we repeated the experiment under 30° C. and found the kinetic constants became (2.7±0.5)×10^4 M^−1s^−1, (1.9±0.4)×10^−2 s^−1 and 6.8±1.2×10 2 nM, as shown in FIG. 6c. The results are close to the value in literature. […] To verify the binding was specific, we performed control experiments by directly injecting compound 1 and PAP-1 to a streptavidin OBL without nanodisc at 30° C.
Fabrication of OBL. The sensor chip (a cover glass coated with 43 nm Au) was rinsed by DI water and ethanol for twice. Then it was annealed by hydrogen flame to further remove surface contaminants. To fabricate the streptavidin OBL, the chip was first dipped in a mixture of 1 mM thiol-PEG2k and 100 μM thiol-PEG10k-bioitin in 1×PBS overnight. The chip was dried with N2 and a silicone cell was mounted on the chip surface for holding solution. Next, the surface was incubated in 0.2 mg/mL streptavidin in PBS for 30 mins. The functionalized surface was carefully rinsed with PBS for 6 times. Note that the solution should not be completely removed from the cell during the rinsing process, and any air bubbles should be avoided as well, because the tethered protein could be irreversibly absorbed on the surface once exposed to air. The surface coverage of streptavidin on the PEG layer was measured to be 64%, and 46% of the streptavidin could oscillate effectively. The streptavidin OBL was later used to couple biotinylated proteins. To couple KcsA-Kv1.3 nanodisc, 70 μg/mL biotinylated KcsA-Kv1.3 nanodisc in nanodisc buffer was added to the cell and incubated for 30 min. Similarly, the biotinylated SRCtide was immobilized on the streptavidin OBL by incubating in 33 μg/mL SRCtide in kinase buffer containing 5 mM MgCl2 and 1 mM HEPES (pH 7.4) for 30 mins.
as §1

The next assay concerns the target T2, streptavidin OBL (Streptomyces avidinii, UniProt P22629).
T2 construct: purchased Thermo Fisher Scientific
The experiment in a line: Control experiment: small molecules injected to streptavidin OBL without nanodisc. It counts as binding. The following applies: streptavidin OBL without nanodisc at 30° C. The source says:
Unlike macromolecules that are inclined to have both mass and charge changes upon binding, small molecules are more likely to have charge change with little mass change. As such, measuring charge could be more sensitive for small molecules. To highlight this advantage of SRR-OBL and its potential for drug screening, we measured two small molecule drug candidates, compound 1 and PAP-1, binding to their target KcsA-Kv1.3, which is a chimeric membrane protein. The KcsA-Kv1.3 was encapsulated in a self-assembled phospholipid bilayer nanodisc that provides a nativelike environment for the membrane proteins to retain the structure and function. Despite the importance of membrane protein as drug targets, measuring the interaction with small molecule drug candidates has been challenging for traditional mass-sensitive technologies, due to the huge mass difference between the small molecule and the membrane protein complex. Before adding samples, 40 times diluted nanodisc buffer was flowed over the surface for 200 seconds to establish the baseline. The binding of the small molecule to KcsA-Kv1.3 nanodisc caused a charge change on the OBL, which leads to an AC response. […]
(§2) Fabrication of OBL. […] The surface coverage of streptavidin on the PEG layer was measured to be 64%, and 46% of the streptavidin could oscillate effectively. […]

Another assay has as its target T3, Src kinase (Homo sapiens, UniProt P12931).
T3 construct: The active full length SRC protein was purchased from Abcam; purchased Abcam
The assay can be described thus: SPR-OBL phosphorylation kinetics of SRCtide by Src kinase. It counts as biochemical. The following applies: ATP present.
Description: Since SPR-OBL is able to record mass and charge changes at the same time, it is particularly suitable for studying complex enzymatic processes that involve multiple kinetic steps and size and charge changes. Phosphorylation is one of such reactions that includes binding of the kinase to the substrate, adding a phosphate to the substrate, and unbinding of the kinase, where each step accompanies mass or charge change. Despite the importance of phosphorylation in many basic cellular signaling processes and its close relationship with various diseases and cancers, traditional techniques including fluorescence, western blot, and mass spectrometry are unable to resolve the kinetic process in real-time, and each kinetic step needs to be measured separately, limiting the measurement efficiency. In contrast, SPR-OBL can measure multiple steps of the enzyme catalytic reaction in real-time and extract several kinetic parameters in a single measurement. We studied the phosphorylation of SRCtide as an example. SRCtide that was a peptide containing 14 amino acid with the sequence GEEPLYWSFPAKKK (SEQ ID NO: 1) was modified on a streptavidin OBL, which serves as the substrate of the enzyme Src kinase. […]
where E and S are the enzyme and substrate, ES is the complex, and P is the phosphorylated product, respectively; and k denotes the kinetic constant in each step. We measured the SPR-OBL response of different concentrations of Src in the presence of ATP and the results are shown in FIG. 8b. […]
where [E0], [S0] and [P] are concentration of SRC, SRCtide and the product, respectively. The Michaelis constant (KM) and catalytic constant (k2) can be determined to be 4.4 nM and 5.5×10^−4 s^−1 by fitting the AC component (FIG. 8d) to Eq. 1. Knowing KM and k2 the association rate constant (k1) and dissociation rate constant (k−1) can be determined by fitting the DC component (FIG. 8c) to the following equations: […]
as §2

T2 sequence (P22629 37-163 limits assumed): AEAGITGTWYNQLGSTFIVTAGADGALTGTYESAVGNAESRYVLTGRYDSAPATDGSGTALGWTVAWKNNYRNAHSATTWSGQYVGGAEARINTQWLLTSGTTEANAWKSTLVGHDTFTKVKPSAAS

By Kd is commonly meant the concentration at which binding is half-saturated. Read a high Kd as lower affinity. Turning to `[Ca+2]` [Ca^2+, calcium ion], the Kd on calmodulin came to 1.9 µM.

For `[Mg+2]` [Mg^2+, Magnesium], binding on calmodulin was characterised by a dissociation constant (Kd) of 35 µM.

`O=c1ccc2c(OCCCCOc3ccccc3)c3ccoc3cc2o1` [PAP-1]: on KcsA-Kv1.3 (25° C.), the Kd worked out at 65 ± 11 µM, the ka result was “(3.8±0.6)×10^2 M^−1 s^−1” and the kd entry was “(2.3±0.1)×10^−2 s^−1”. For the same molecule, on KcsA-Kv1.3 (30° C.), the Kd is 210 µM, the ka result is given as “(4.8±0.4)×10^2 M^−1s^−1” and the kd result is on record as “(9.6±1.1)×10^−2 s^−1”. For the same molecule, the “response on streptavidin OBL (nonspecific binding control)” value on streptavidin OBL is “only small response”.

Take “SRCtide: peptide containing 14 amino acid with the sequence GEEPLYWSFPAKKK (SEQ ID NO: 1), substrate of Src kinase”: in the assay with Src kinase (fit of AC component to Eq. 1 (EQSS)), the “catalytic constant (k2)” value came to 0.00055 s⁻¹. Further, in the assay with Src kinase (fit of DC component), the “association rate constant (k1)” value is recorded as 1.3×10^4 and the “dissociation rate constant (k−1)” value came to 2e-06 s⁻¹.
